Tests used:
[1] = system: Hs27 human fibroblast / HEK human keratinocyte co-cultures; assay: Elastin synthesis in fibroblast/keratinocyte co-cultures (Fastin Elastin kit); assay type: cell-based; parameters: key: a “+” sign indicates an increase in synthesis; ++: multiple “+” signs indicating a higher increase in synthesis; +++: multiple “+” signs indicating a higher increase in synthesis; ++++: multiple “+” signs indicating a higher increase in synthesis; a “−” sign indicates decrease in synthesis; −−: multiple “−”signs indicating a higher decrease in synthesis; details: 10 mg/ml, overnight, elastin in supernatant
Description: Hs27, a human fibroblast cell culture and HEK, a human keratinocyte cell culture, were established in 24 well plates. The cells were exposed to various ingredients of the formulations of the present invention at concentrations of 10 mg/ml. The co-cultures were then incubated overnight. The following day supernatants were collected. The supernatants were analyzed for the presence of elastin using the Fastin Elastin® kit from Biocolor. Liao […]. 2004. “Relationship between collagen fibrils, glycosaminoglycans, and stress relaxation in mitral valve chordae […].” Ann. Biomed. Eng. 32(7):977-983.

[2] = system: Hs27 human fibroblast / HEK human keratinocyte co-cultures; assay: Pro-collagen synthesis in fibroblast/keratinocyte co-cultures (ELISA); assay type: cell-based; parameters: key: a “+” sign indicates an increase in synthesis; ++: multiple “+” signs indicating a higher increase in synthesis; +++: multiple “+” signs indicating a higher increase in synthesis; ++++: multiple “+” signs indicating a higher increase in synthesis; a “−” sign indicates decrease in synthesis; −−: multiple “−”signs indicating a higher decrease in synthesis; details: 10 mg/ml, overnight, pro-collagen in supernatant
Description: Hs27, a human fibroblast cell culture and HEK, a human keratinocyte cell culture, were established in 24 well plates. The cells were exposed to various ingredients used in formulations of the present invention at concentrations of 10 mg/ml. The co-cultures were then incubated overnight. The following day, supernatants were collected. The supernatants were analyzed for the presence of pro-collagen, a soluble precursor of collagen formed by fibroblasts in the process of collagen synthesis. Pro-collagen synthesis was assayed using commercially available ELISA kits. See […], Falabella A, Ochoa S, Zhou […]. “Dermal fibroblasts from venous ulcers are unresponsive to the action of transforming growth factor-beta 1.” J Dermatol Sci. 1997. 16(1):59-66.

Human HEK001 cells = assay: Lipid synthesis, Oil Red O staining; assay type: cell-based; parameters: key to Lipids: a “+” sign indicates an increase in synthesis; ++: multiple “+” signs indicating a higher increase in synthesis; +++: multiple “+” signs indicating a higher increase in synthesis; ++++: multiple “+” signs indicating a higher increase in synthesis; a “−” sign indicates decrease in synthesis; −−: multiple “−”signs indicating a higher decrease in synthesis; details: 0.005%, overnight; for Lipids: 0.05%, and 0.5% in media, Oil Red O OD 515 nm
Description: Human HEK001 cells were plated at 2×10^4/well in 96 well plates and were incubated overnight. The following day, the cells were exposed to: glycine, Cherokee rose hips, grape seed extract, Wolfberry extract, Pickled Ume, Ascorbic acid, Chinese Angelica extract, royal jelly, and α-tocopherol, which were diluted into cell culture media at concentrations of 0.005%, 0.05%, and 0.5%. The cells were then again incubated overnight. The following day, the cells were fixed in 1% formaldehyde. Cellular lipids were then stained with Oil Red O® stain. See Ramirez J L, Castro-Munnozledo F, Kuri-Harusch W. 1992. “Quantitation of adipose conversion and triglycerides by staining intracytoplasmic lipids with Oil Red O.” Histochemistry. 97:493-497. Following staining, the lipid bound stain was extracted with isopropanol. The OD of the extracted stain was read at 515 nm.

mouse keratinocytes = mouse keratinocytes in vitro; cited from earlier work
MMP-9 = MMP-9 enzyme activity (Molecular Probes kit); assay type: biochemical; parameters: key: a “+” sign indicates an increase in synthesis; ++: multiple “+” signs indicating a higher increase in synthesis; +++: multiple “+” signs indicating a higher increase in synthesis; ++++: multiple “+” signs indicating a higher increase in synthesis; a “−” sign indicates decrease in synthesis; −−: multiple “−”signs indicating a higher decrease in synthesis; details: samples diluted to 100 μg/ml
Source text: (§1) Commercially available kits were used for testing the effect of various ingredients used in the formulations of the present invention on the activity of the MMP-1, MMP-9, and elastase. Gould L J, Yager D R, McGeehan G M, Diegelmann R F. 1999. “Method to analyze collagenase and gelatinase activity by fibroblasts in culture.” In Vitro Cell. Dev. Biol. Anim. 35(2):75-79. For MMP-1, a kit from Amersham® was used according to the manufacturer's specifications. For MMP-9 and Elastase, kits from Molecular Probes® were used. The samples were prepared in stock solvent at stock concentrations of 100 mg/ml. The samples were diluted to 100 μg/ml using PBS.

MMP-1 = molecular target: T1, MMP-1 (Homo sapiens, UniProt P03956); assay: MMP-1 enzyme activity (Amersham kit); assay type: biochemical; parameters: key: a “+” sign indicates an increase in synthesis; ++: multiple “+” signs indicating a higher increase in synthesis; +++: multiple “+” signs indicating a higher increase in synthesis; ++++: multiple “+” signs indicating a higher increase in synthesis; a “−” sign indicates decrease in synthesis; −−: multiple “−”signs indicating a higher decrease in synthesis; details: samples diluted to 100 μg/ml
T1 construct: purchased Amersham
T1 sequence (P03956 100-469): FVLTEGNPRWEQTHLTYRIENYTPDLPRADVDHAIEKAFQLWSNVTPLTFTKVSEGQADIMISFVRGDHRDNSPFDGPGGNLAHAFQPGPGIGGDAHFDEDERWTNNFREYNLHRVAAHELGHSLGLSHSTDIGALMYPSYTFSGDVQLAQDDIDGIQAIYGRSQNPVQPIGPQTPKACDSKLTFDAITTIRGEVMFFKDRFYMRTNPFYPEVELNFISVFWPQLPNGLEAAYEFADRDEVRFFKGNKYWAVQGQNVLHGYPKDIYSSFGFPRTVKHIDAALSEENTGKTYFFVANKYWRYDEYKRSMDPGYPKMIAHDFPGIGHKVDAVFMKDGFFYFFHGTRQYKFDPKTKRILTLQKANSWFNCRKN
Source text: as §1

Elastase = molecular target: T2, Elastase (Sus scrofa, UniProt P00772); assay: Elastase enzyme activity (Molecular Probes kit); assay type: biochemical; parameters: key: a “+” sign indicates an increase in synthesis; ++: multiple “+” signs indicating a higher increase in synthesis; +++: multiple “+” signs indicating a higher increase in synthesis; ++++: multiple “+” signs indicating a higher increase in synthesis; a “−” sign indicates decrease in synthesis; −−: multiple “−”signs indicating a higher decrease in synthesis; details: samples diluted to 100 μg/ml
T2 construct: purchased Molecular Probes
Source text: as §1

[3] = daily consumption of tomato paste over ten weeks; cited from earlier work
humans = details: supplementation with high doses; cited from earlier work

T2 sequence (P00772 27-266): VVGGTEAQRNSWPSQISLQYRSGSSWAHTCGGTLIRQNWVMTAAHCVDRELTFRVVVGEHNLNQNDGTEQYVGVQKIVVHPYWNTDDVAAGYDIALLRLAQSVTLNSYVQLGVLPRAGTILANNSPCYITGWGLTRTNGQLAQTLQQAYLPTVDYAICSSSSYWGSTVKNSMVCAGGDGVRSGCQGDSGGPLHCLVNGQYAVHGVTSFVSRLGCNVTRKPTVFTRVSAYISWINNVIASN

In the case of `O=C1O[C@H]([C@@H](O)CO)C(O)=C1O` [Ascorbic acid], the Elastin [1] is reported as “+”, the Collagen [2] is reported as “++++” and the Lipids (Human HEK001 cells) is reported as “−”. For the same molecule, the UVB-induced oxidative damage (mouse keratinocytes) was “shown to reduce UVB-induced oxidative damage in mouse”.
With `Cc1c(C)c2c(c(C)c1O)CC[C@@](C)(CCC[C@H](C)CCC[C@H](C)CCCC(C)C)O2` [α-tocopherol] the MMP-9 (MMP-9) was “−”, the Elastin [1] was “−” and the Collagen [2] was “−”. For the same molecule, the MMP-1 (MMP-1) was “−”, the Lipids (Human HEK001 cells) was “+” and the “induction of lipid synthesis” value (Human HEK001 cells; 0.05%, and 0.5%, Oil Red O) was “demonstrated the ability to induce lipid synthesis”. The Elastase (Elastase) was “−”.
For `CC(C)=CCC/C(C)=C/C=C/C(C)=C/C=C/C(C)=C/C=C/C=C(C)/C=C/C=C(C)/C=C/C=C(\C)CCC=C(C)C` [Lycopene], the “protection against erythema formation following UV-irradiation” value [3] is listed as “a period of ten weeks provides protection against erythema formation”.
For `NCC(=O)O` [Glycine], the Elastin [1] was “−”, the Collagen [2] was “+” and the Lipids (Human HEK001 cells) was “−”.
For `CC1=C(/C=C/C(C)=C/C=C/C(C)=C/C=C/C=C(C)/C=C/C=C(C)/C=C/C2=C(C)CCCC2(C)C)C(C)(C)CCC1` [beta-carotene], the “protection against UV-induced erythema” value (humans) is given as “with high doses of beta-carotene protects against UV-induced”.

From patent publication US7348034B2, “Plant based formulations for improving skin moisture, texture, and appearance” (Access Business Group International LLC, priority 2005, dated 2008)
